Assay results as given in patent publication US6812232B2, “Heterocycle substituted purine derivatives as potent antiproliferative agents” (AMR Technology, Inc., priority 2001, dated 2004).
Values joined by “and” are separate entries in the source; they are usually repeats but may differ in a detail not shown here. Identical values can stand only once.

Key:
[1] = molecular target: T1, CyclinB/cdk1 (Homo sapiens, UniProt P06493); experiment: CyclinB/cdk1 protein kinase assay (histone H1 phosphorylation); format: biochemical; settings: Table 2; complexes isolated from HeLa cells, histone H1, 15 μM ATP; replicate experimental results; read-out: IC50 CyclinB/cdkl
T1 construct: Monoclonal antibody against cyclinB (GNS1) is added to the supernatant; endogenous in cells

[2] = test system: HeLa S-3 cells; experiment: Inhibition of cell growth (SRB), HeLa; format: cell-based, human; settings: Table 2, 2 days of treatment, replicate experimental results
Method: D. Measuring the Inhibition of Cell Growth.
Growth inhibition (GI50) values were measured with HeLa S-3 cells selected for growth on plastic. […] One day later, a control plate was fixed by addition of TCA to 5%. After five rinses with tap water the plate was air dried and stored at 4° C. Test compounds were added to the remaining plates at 10-fold dilutions between 0.01 and 100 μM. Two days later all plates were fixed as described above. Cells were then stained by the addition of 100 […] of 0.4% sulforhodamine B (SRB) in 1% acetic acid for 30 min at 4° C. Wells were then quickly rinsed 5× with acetic acid (1%) and allowed to air dry. The SRB was then solubilized by the addition of 100 μl per well of unbuffered 10 mM Tris base. Dye was quantified by measuring absorbance at 490 nm on a Molecular Devices kinetic microplate reader. Growth at each inhibitor concentration relative to the untreated control was calculated according to the following equation: percent growth=100×(T−To)/(C−To), where T was the average optical density (OD) of the test wells after 2 days of treatment, To was the average OD of the wells in the control plate on day 0 and C was the average OD of untreated wells. Plots of percent growth versus inhibitor concentration were used to determine the GI50.

T1 sequence (P06493 whole entry): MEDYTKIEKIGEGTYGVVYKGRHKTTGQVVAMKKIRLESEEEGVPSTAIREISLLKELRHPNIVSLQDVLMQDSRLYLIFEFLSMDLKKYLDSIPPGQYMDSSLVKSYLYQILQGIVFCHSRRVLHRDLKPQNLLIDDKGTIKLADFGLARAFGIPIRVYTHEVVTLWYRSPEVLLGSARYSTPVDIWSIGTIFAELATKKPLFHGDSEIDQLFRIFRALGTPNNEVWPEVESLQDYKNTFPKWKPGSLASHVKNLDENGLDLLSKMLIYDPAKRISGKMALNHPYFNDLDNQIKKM
T1 sequence (P14635 whole entry partner): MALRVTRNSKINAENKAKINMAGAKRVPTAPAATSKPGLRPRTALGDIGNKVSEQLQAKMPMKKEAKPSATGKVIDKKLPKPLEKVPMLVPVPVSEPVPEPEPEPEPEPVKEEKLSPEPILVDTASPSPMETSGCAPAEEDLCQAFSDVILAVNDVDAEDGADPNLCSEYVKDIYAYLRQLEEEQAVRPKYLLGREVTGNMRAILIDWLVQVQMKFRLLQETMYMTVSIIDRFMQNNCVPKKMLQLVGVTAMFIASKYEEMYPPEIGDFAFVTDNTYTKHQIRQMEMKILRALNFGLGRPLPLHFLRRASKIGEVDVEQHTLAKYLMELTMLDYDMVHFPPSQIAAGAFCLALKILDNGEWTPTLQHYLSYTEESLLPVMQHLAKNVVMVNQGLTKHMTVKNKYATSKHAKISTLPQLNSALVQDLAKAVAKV

Row | Compound | GI50 [2] | melting point | further results
1 | CC[C@H](CO)Nc1nc(NCc2ccc(-c3cccc([N+](=O)[O-])c3)cc2)c2ncn(C(C)C)c2n1 [Compound 48] | – | – | IC50 [1]: > 10000 nM
2 | CC(C)n1cnc2c(NCc3ccc(-c4ccsc4)cc3)nc(N[C@H]3CC[C@H](NC(=O)OC(C)(C)C)CC3)nc21 [Compound 130] | > 10000 nM | – | –
3 | CC(C)n1cnc2c(NCc3cccc(-c4ccsc4)c3)nc(N[C@H]3CC[C@H](N)CC3)nc21 [Compound 131] | 2000 nM | 211 to 216 °C | GI50 ([2]; Homo sapiens, HeLa S3, 48 h): 3000 nM
4 | CC(=O)N[C@H]1CC[C@H](Nc2nc(NCc3cccc(-c4ccsc4)c3)c3ncn(C(C)C)c3n2)CC1 [Compound 132] | 3000 nM | 209 to 211 °C | GI50 ([2]; Homo sapiens, HeLa S3, 48 h): 4000 nM
5 | CC(C)n1cnc2c(NCc3ccc(-c4ccccc4)cc3)nc(N[C@H]3CC[C@H](NC(=O)OC(C)(C)C)CC3)nc21 [Compound 133] | > 10000 nM | – | –
6 | CC(=O)NC1CCC(Nc2nc(NCc3ccc(-c4cccc(C)c4)cc3)c3ncn(C(C)C)c3n2)CC1 (centres unmarked) [Compound 178] | 400 nM and 200 nM | – | –
7 | COc1cccc(-c2ccc(CNc3nc(NC4CCC(NC(C)=O)CC4)nc4c3ncn4C(C)C)cc2)c1 (centres unmarked) [Compound 180] | 400 nM and 300 nM | – | –
8 | CC(=O)N[C@H]1CC[C@H](Nc2nc(NCc3ccc(-c4cccc(F)c4)nc3)c3ncn(C(C)C)c3n2)CC1 [Compound 188] | – | 199 to 230 °C | –
9 | CC(C)n1cnc2c(NCc3ccc(-c4ccccc4)cn3)nc(N[C@H]3CC[C@H](N)CC3)nc21 [Compound 229] | – | – | GI50 ([2]; Homo sapiens, HeLa S3, 48 h): 400 nM

Now from value to molecule, other results behind:

Row | GI50 [2] | melting point | Compound | further results
10 | – | 216 to 218 °C | CC(=O)N[C@H]1CC[C@H](Nc2nc(NCc3ccc(-c4ccco4)nc3)c3ncn(C(C)C)c3n2)CC1 [Compound 206] | –
11 | 4000 nM and 3000 nM | – | CC(=O)NCCNc1nc(NCc2ccc(-c3ccccc3)cc2)c2ncn(C(C)C)c2n1 [Compound 208] | –
12 | 300 nM and 400 nM and 700 nM | – | COC(=O)NC1CCC(Nc2nc(NCc3ccc(-c4ccccc4)cc3)c3ncn(C(C)C)c3n2)CC1 (centres unmarked) [Compound 259] | –
13 | 300 nM | – | CC(C)n1cnc2c(NCc3ccc(-c4ccccc4)cc3)nc(NC3CCC(NC(=O)C4CC4)CC3)nc21 (centres unmarked) [Compound 261] | –
